Source: the NIST ThermoML archive (doi:10.1016/j.jct.2005.07.015)
Numbers after ± are expanded uncertainties.

Conditions: Liquid, Closed cell (Static) method

CCO [ethanol]
Conditions	vapor or sublimation pressure [kPa]
298.15 K	7.878 ± 0.023
303.15 K	10.47 ± 0.027
308.15 K	13.77 ± 0.034
313.15 K	17.91 ± 0.042
318.15 K	23.07 ± 0.052
323.15 K	29.46 ± 0.063
